Test results from PMC10838150 (Toxicology in vitro : an international journal published in …, 2021).
Read-outs that look alike come from different tables or passages of the source.

Assays:
[1] = Metabolic clearance; details: human, MCF7 cells, Mean Half-life, MCF7, 1 μM, one-phase exponential decay
[2] = test system: MCF7; assay: Metabolic clearance; details: MCF7, 1 μM
[3] = test system: 50-donor pool PHHs; assay: Metabolic clearance; details: 1 μM
[4] = Metabolic clearance; details: human, Mean Half-life, 50-donor pool PHHs, one-phase exponential decay
[5] = test system: HEK293; assay: Metabolic clearance; details: HEK293, 1 μM
[6] = Metabolic clearance; details: human, HEK293 cells, Mean Half-life, HEK293, 1 μM, one-phase exponential decay
[7] = test system: HepG2; assay: Metabolic clearance; details: HepG2, 1 μM
[8] = Metabolic clearance; details: human, HepG2 cells, Mean Half-life, HepG2, 1 μM, one-phase exponential decay
[9] = test system: PHHs; details: 150 minutes, 50 μM 7HC
[10] = test system: HepG2
[11] = test system: MCF7
[12] = test system: HEK293
[13] = test system: CYP1A2; assay: CYP450-Glo bioluminescent assay CYP1A2 in Tox21 cell lines; type: cell-based; details: 24 hours pretreatment
[14] = test system: MCF7; details: human, 1 μM
[15] = test system: 50-donor pool PHHs; details: human, 1 μM
[16] = test system: HepG2; details: human, 1 μM
[17] = test system: HEK293; details: human, 1 μM
[18] = molecular target: T1, CYP2B6 (Homo sapiens, UniProt P20813); assay: Hydroxybupropion formation from bupropion in HepG2; type: in vitro ADME; details: HepG2 cells
T1 sequence (P20813 1-491): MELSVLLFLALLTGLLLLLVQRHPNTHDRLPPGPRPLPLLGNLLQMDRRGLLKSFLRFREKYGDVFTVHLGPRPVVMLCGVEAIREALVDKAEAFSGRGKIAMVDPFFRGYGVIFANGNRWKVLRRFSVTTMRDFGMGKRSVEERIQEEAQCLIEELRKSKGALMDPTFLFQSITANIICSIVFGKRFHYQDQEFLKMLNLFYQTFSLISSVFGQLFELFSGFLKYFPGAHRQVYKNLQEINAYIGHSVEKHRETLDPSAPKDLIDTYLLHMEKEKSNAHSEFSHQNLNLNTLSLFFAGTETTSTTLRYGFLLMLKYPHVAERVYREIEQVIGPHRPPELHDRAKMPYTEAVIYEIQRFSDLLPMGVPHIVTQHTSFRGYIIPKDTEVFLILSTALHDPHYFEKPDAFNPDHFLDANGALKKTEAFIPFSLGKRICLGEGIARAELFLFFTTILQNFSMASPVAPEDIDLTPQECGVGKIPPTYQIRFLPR

[19] = molecular target: T1, CYP2B6; assay: Hydroxybupropion formation from bupropion in HCT116; type: in vitro ADME; details: HCT116 cells
[20] = molecular target: T1, CYP2B6; assay: Hydroxybupropion formation from bupropion in HEK293; type: in vitro ADME; details: HEK293 cells
[21] = test system: CYP2B6; assay: Hydroxybupropion formation from bupropion in C3H10T1/2; type: in vitro ADME, mouse; details: C3H10T1/2, 24 h, Michaelis-Menten fit
[22] = test system: CYP3A4/5; assay: 1-Hydroxymidazolam formation from midazolam in PHH suspensions; type: in vitro ADME, human
[23] = test system: CYP3A4/5; assay: 1-Hydroxymidazolam formation from midazolam in HepG2; type: in vitro ADME, human
[24] = test system: CYP1A2; assay: Acetaminophen formation from phenacetin in C3H10T1/2; type: in vitro ADME, mouse
[25] = test system: CYP1A2; assay: Acetaminophen formation from phenacetin in HepG2; type: in vitro ADME, human
[26] = test system: sulfotransferase; details: ref Ishii and Tamura, 2003, cited from earlier work
[27] = HepG2, 24 h, Michaelis-Menten fit

O=c1ccc2ccc(O)cc2o1 [7HC, 7-hydroxycoumarin]
half-life at 1 μM [1]: ~4.83 h | Percent Depletion 240 min [2]: 40% | Mean Half-life ([2]; one-phase exponential decay): 4.875 h | Percent Depletion 240 min [3]: 99% | Mean Half-life ([3]; one-phase exponential decay): 0.378 h | half-life at 1 μM [4]: ~0.383 h | Percent Depletion 240 min [5]: 50% | Percent Depletion 24 hour [5]: 99% | Mean Half-life ([5]; one-phase exponential decay): 3.498 h | half-life at 1 μM [6]: ~3.5 h | Percent Depletion 240 min [7]: 27% | Mean Half-life ([7]; one-phase exponential decay): 4.843 h | half-life at 1 μM [8]: ~4.83 h

O=C(O)[C@H]1O[C@@H](Oc2ccc3ccc(=O)oc3c2)[C@H](O)[C@@H](O)[C@@H]1O [7HCG, 7-hydroxycoumarin glucuronide]
Phase II Metabolite Formation Rate [9]: 190 ± 41.8 pmol/minute-million cells | Phase II Metabolite Formation Rate ([10]; HepG2, 150 minutes, 50 μM 7HC): 1.96 ± 0.887 pmol/minute-million cells | Phase II Metabolite Formation Rate ([10]; HepG2, 24 hours, 50 μM 7HC): 2.89 ± 0.563 pmol/minute-million cells | Phase II Metabolite Formation Rate ([11]; MCF7, 150 minutes, 50 μM 7HC): 1.34 ± 0.206 pmol/minute-million cells | Phase II Metabolite Formation Rate ([11]; MCF7, 24 hours, 50 μM 7HC): 0.809 ± 0.0457 pmol/minute-million cells | Phase II Metabolite Formation Rate ([12]; HEK293, 150 minutes, 50 μM 7HC): -------------^1 | Phase II Metabolite Formation Rate ([12]; HEK293, 24 hours, 50 μM 7HC): -------------^1

Nn1nnc2ccccc21 [ABT, aminobenzotriazole]
inhibition of CYP1A2 luminescent metabolite formation ([13]; ABT 1 mM, HepG2, MCF7, CHO-K1, C3H10T1/2, GH3TRE-Luc): only inhibited in CHO-K1 cells

O=C(O)[C@H]1O[C@@H](Oc2ccc(C(c3ccc(O)cc3)(C(F)(F)F)C(F)(F)F)cc2)[C@H](O)[C@@H](O)[C@@H]1O [BPAF G, bisphenol AF glucuronide]
Phase II Metabolite Formation Rate ([10]; HepG2, 150 minutes, 50 μM BPAF or BPS): -------------^1 | Phase II Metabolite Formation Rate ([11]; MCF7, 150 minutes, 50 μM BPAF or BPS): -------------^1 | Phase II Metabolite Formation Rate ([11]; MCF7, 24 hours, 50 μM BPAF or BPS): -------------^1 | Phase II Metabolite Formation Rate ([12]; HEK293, 150 minutes, 50 μM BPAF or BPS): -------------^1 | Phase II Metabolite Formation Rate ([12]; HEK293, 24 hours, 50 μM BPAF or BPS): -------------^1

Oc1ccc(C(c2ccc(O)cc2)(C(F)(F)F)C(F)(F)F)cc1 [BPAF, bisphenol AF]
Percent Depletion 240 min ([14]; 240 min): 42 ±/- 7.7% | Percent Depletion 24 hour ([14]; 24 h): 55 ±/- 7.4% | Mean Half-life (fast) ([14]; other cell line): 0.388 h | Mean Half-life (slow) ([14]; other cell line): ~9,684 min | Percent Depletion 240 min ([15]; 240 min): 82 ±/- 2.9% | Mean Half-life ([15]; hepatocytes): 1.44 h | Percent Depletion 240 min ([16]; 240 min): 36 ±/- 8.2% | Percent Depletion 24 hour ([16]; 24 h): 66 ±/- 6.6% | Mean Half-life (fast) ([16]; other cell line): 0.52 h | Mean Half-life (slow) ([16]; other cell line): 1,626 min | Percent Depletion 240 min ([17]; 240 min): 36 ±/- 5.4% | Percent Depletion 24 hour ([17]; 24 h): 60 ±/- 4.5% | Mean Half-life (slow) ([17]; other cell line): ~1,887 min

CC(NC(C)(C)C)C(=O)c1cccc(Cl)c1 (stereo not drawn) [Bupropion, bupropion]
Km at 24 h [18]: 4.79 ± 5.48 µM | Km at 24 h [19]: 1910 ± 1050 µM | Km at 24 h [20]: 1260 ± 734 µM | Vmax CYP2B6 [21]: 0.0422 ± 0.0119

Cc1ncc2n1-c1ccc(Cl)cc1C(c1ccccc1F)=NC2 [Midazolam, midazolam]
Vmax CYP3A4/5 ([22]; PHH, 30 min, Michaelis-Menten fit): 187 ± 8.35 | Km at 30 min ([22]; human): 10.7 ± 1.34 µM | Vmax CYP3A4/5 [23, 27]: 0.0177 ± 0.000912 | Km at 24 h ([23]; human, HepG2 cells): 0.969 ± 0.268 µM

COc1ccc2[nH]c([S+]([O-])Cc3ncc(C)c(OC)c3C)nc2c1 (stereo not drawn) [OMP, omeprazole]
induction of CYP1A2 luminescence ([13]; OMP 100 μM, Tox21 cell lines): only marginal increased luminescence

CCOc1ccc(NC(C)=O)cc1 [Phenacetin]
Vmax CYP1A2 ([24]; C3H10T1/2, 24 h, Michaelis-Menten fit): 0.168 ± 0.0393 | Km at 24 h ([24]; mouse, C3H10T1/2 cells): 247 ± 111 µM | Vmax CYP1A2 [25, 27]: 0.320 ± 0.0234 | Km at 24 h ([25]; human, HepG2 cells): 38.4 ± 11.8 µM

CC(C)(c1ccc(O)cc1)c1ccc(O)cc1 [bisphenol A]
depletion ([26]; after 5 days incubations with 10 μM exposure): 4% | Km ([26]; read-out: apparent Km for sulfotransferase activity): 74 µM
